Columns and labels:
Type in all cases: in vivo, Arabidopsis thaliana
[1] = tested on: Arabidopsis mutant line Cesa1_G1009D; assay: Growth inhibition of Arabidopsis lines in 48-well plates, tolerance factor from IC50; details: growth inhibition seven to ten days after seeding
From the text: (§1) For selection of cellulose biosynthesis inhibitor resistant plants EMS mutagenized seed populations of Arabidopsis thaliana are used. EMS mutagenized seed populations are either bought from Lehle Seeds (1102 South Industrial Blvd. Suite D, Round Rock, Texas USA) or are generated as described elsewhere (Heim D R, et. al. (1989) Plant Physiol. 90: 146-150). Causative mutations in CESA wildtype sequences (e.g. SEQ ID NO: 1 or 3) are identified as described by Scheible W R et. al. (2001, Proc. Natl. Acad. of Sci. 98: 10079-10084), McCourt et. al. (WO2013/142968) or with the use of next generation sequencing methods as described by Austin R S, et. al. (2011) Plant Journal 67: 715-725.
(§2) Selected Arabidopsis thaliana lines were assayed for improved resistance to azines like 6-cyclopentyl-N4-(2,3,4,5,6-pentafluorophenyl)-1,3,5-triazine-2,4-diamine; 6-(1-fluoro-1-methyl-ethyl)-N4-(2,3,4,5,6-pentafluorophenyl)-1,3,5-triazine-2,4-diamine; 6-cyclohexyl-N2-(2,3,4,5,6-pentafluorophenyl)-1,3,5-triazine-2,4-diamine; 6-(2,6-difluorophenyl)-N2-(2,3,5,6-tetrafluorophenyl)-1,3,5-triazine-2,4-diamine; N2-(4-chloro-3,5,6-trifluoro-2-pyridyl)-6-(1-fluoro-1-methyl-ethyl)-1,3,5-triazine-2,4-diamine in 48-well plates. Therefore, M2 or M3 seeds are surface sterilized by stirring for 5 min in ethanol+water (70+30 by volume), rinsing one time with ethanol+water (70+30 by volume) and two times with sterile, deionized water. The seeds are resuspended in 0.1% agar dissolved in water (w/v) Four to five seeds per well are plated on solid nutrient medium consisting of half-strength murashige skoog nutrient solution, pH 5.8 (Murashige and Skoog (1962) Physiologia Plantarum 15: 473-497). Compounds are dissolved in dimethylsulfoxid (DMSO) and added to the medium prior solidification (final DMSO concentration 0.1%). Multi well plates are incubated in a growth chamber at 22° C., 75% relative humidity and 110 μmol Phot*m^−2*s^−1 with 14:10 h light:dark photoperiod. Growth inhibition is evaluated seven to ten days after seeding in comparison to wild type plants. Tolerance factors are calculated based on IC50 values of growth inhibition of transformed versus non-transformed Arabidopsis plants (Table 3).

[2] = tested on: Arabidopsis mutant line Cesa1_G1013R; assay: as above; details: growth inhibition seven to ten days after seeding
From the text: as §1, §2

[3] = tested on: Arabidopsis mutant line Cesa1_P1010L; assay: as above; details: growth inhibition seven to ten days after seeding
From the text: as §1, §2

[4] = tested on: Arabidopsis mutant line Cesa3_S1037F; assay: as above; details: growth inhibition seven to ten days after seeding
From the text: as §1, §2

[5] = tested on: Arabidopsis mutant line Cesa3_S1040L; assay: as above; details: growth inhibition seven to ten days after seeding
From the text: as §1, §2

[6] = tested on: Arabidopsis mutant line Cesa3_S983F; assay: as above; details: growth inhibition seven to ten days after seeding
From the text: as §1, §2

[7] = tested on: wildtype Arabidopsis plants; assay: as above; details: growth inhibition seven to ten days after seeding
From the text: as §1, §2

[8] = tested on: Cesa1_G1009D, fpx2-3 mutant line; assay: Greenhouse phytotox, pre-emergent treatment
Outline: (§3)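 Greenhouse tests on M2 or M3 Arabidopsis plants for tolerance to cellulose biosynthesis-inhibiting herbicides, e.g. pentafluorophenyl-, tetrafluorophenyl- or chloro-trifluoropyridyl-substituted 1,3,5-triazine-2,4-diamines. Treatment given pre-emergence or post-emergence 6 weeks after sowing.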

[9] = tested on: Cesa1_G1013R, fpx2-1 mutant line; assay: Greenhouse phytotox, pre-emergent treatment
Outline: as §3

[10] = tested on: Cesa3_S1037F, fpx1-2 mutant line; assay: Greenhouse phytotox, pre-emergent treatment
Outline: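 First, M2 or M3 Arabidopsis plants are grown under greenhouse conditions. Next, they are treated with a cellulose biosynthesis-inhibiting triazine-2,4-diamine herbicide, e.g. N4-(4-chloro-3,5,6-trifluoro-2-pyridyl)-6-(1-fluoro-1-methyl-ethyl)-1,3,5-triazine-2,4-diamine. Finally, improved herbicide tolerance is evaluated.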

[11] = tested on: A. thaliana WT L. erecta; assay: Greenhouse phytotox, post-emergent treatment 6 weeks after sowing
Experimental: (§4) Additionally, M2 or M3 Arabidopsis plants are tested for improved tolerance to cellulose biosynthesis-inhibiting herbicides in greenhouse studies (e. g. with the following cellulose biosynthesis-inhibiting herbicides: 6-cyclopentyl-N4-(2,3,4,5,6-pentafluorophenyl)-1,3,5-triazine-2,4-diamine; 6-(1-fluoro-1-methyl-ethyl)-N4-(2,3,4,5,6-pentafluorophenyl)-1,3,5-triazine-2,4-diamine; N4-(4-chloro-3,5,6-trifluoro-2-pyridyl)-6-(1-fluoro-1-methyl-ethyl)-1,3,5-triazine-2,4-diamine; 6-(2,6-difluorophenyl)-N4-(2,3,5,6-tetrafluorophenyl)-1,3,5-triazine-2,4-diamine; N4-(4-bromo-2,3,5,6-tetrafluoro-phenyl)-6-(1-fluoro-1-methyl-ethyl)-1,3,5-triazine-2,4-diamine.

[12] = tested on: Cesa1_G1009D, fpx2-3 mutant line; assay: as above
Experimental: as §4

[13] = tested on: Cesa1_G1013R, fpx2-1 mutant line; assay: as above
Experimental: as §4

[14] = tested on: Cesa1_P1010L, fpx2-2 mutant line; assay: as above
Experimental: as §4

[15] = tested on: Cesa3_S1037F, fpx1-2 mutant line; assay: as above
Experimental: as §4

[16] = tested on: Cesa3_S1040L, fpx1-1 mutant line; assay: as above
Experimental: as §4

[17] = tested on: Cesa3_S983F, fpx1-3 mutant line; assay: as above
Experimental: as §4

For `Nc1nc(Nc2c(F)c(F)c(F)c(F)c2F)nc(C2CCCC2)n1` [6-cyclopentyl-N4-(2,3,4,5,6-pentafluorophenyl)-1,3,5-triazine-2,4-diamine], the “Relative tolerance rate (wildtype = 1.0)” value [1] was 3, the “Relative tolerance rate (wildtype = 1.0)” value [2] was 25 and the “Relative tolerance rate (wildtype = 1.0)” value [3] was 3. The “Relative tolerance rate (wildtype = 1.0)” value [4] was 75, the “Relative tolerance rate (wildtype = 1.0)” value [5] was 56 and the “Relative tolerance rate (wildtype = 1.0)” value [6] was 75. The “Relative tolerance rate (wildtype = 1.0)” value [7] was 1, the “Phytotox value on a scale from 0-100 (100 is 100% damage)” value (“Phytotox value … (100 is 100% damage)” for short) ([8]; 0.25 g ai/ha) was 5 and the “Phytotox value … (100 is 100% damage)” value ([8]; 0.98 g ai/ha) was 25. The “Phytotox value … (100 is 100% damage)” value ([8]; 3.91 g ai/ha) was 58, the “Phytotox value … (100 is 100% damage)” value ([8]; 15.63 g ai/ha) was 88 and the “Phytotox value … (100 is 100% damage)” value ([9]; 0.25 g ai/ha) was 5. The “Phytotox value … (100 is 100% damage)” value ([9]; 0.98 g ai/ha) was 15, the “Phytotox value … (100 is 100% damage)” value ([9]; 3.91 g ai/ha) was 25 and the “Phytotox value … (100 is 100% damage)” value ([9]; 15.63 g ai/ha) was 15. The “Phytotox value … (100 is 100% damage)” value ([10]; 0.25 g ai/ha) was 0, the “Phytotox value … (100 is 100% damage)” value ([10]; 0.98 g ai/ha) was 23 and the “Phytotox value … (100 is 100% damage)” value ([10]; 3.91 g ai/ha) was 15. For the same molecule, the “Phytotox value … (100 is 100% damage)” value ([10]; 15.63 g ai/ha) was 5, the “Phytotox value … (100 is 100% damage)” value ([11]; 7.88 g ai/ha) was 68 and the “Phytotox value … (100 is 100% damage)” value ([11]; 15.75 g ai/ha) was 80. For the same molecule, the “Phytotox value … (100 is 100% damage)” value ([11]; 31.5 g ai/ha) was 78, the “Phytotox value … (100 is 100% damage)” value ([11]; 63 g ai/ha) was 98 and the “Phytotox value … (100 is 100% damage)” value ([12]; 7.88 g ai/ha) was 45. The “Phytotox value … (100 is 100% damage)” value ([12]; 15.75 g ai/ha) was 63, the “Phytotox value … (100 is 100% damage)” value ([12]; 31.5 g ai/ha) was 73 and the “Phytotox value … (100 is 100% damage)” value ([12]; 63 g ai/ha) was 75. For the same molecule, the “Phytotox value … (100 is 100% damage)” value ([13]; 7.88 g ai/ha) was 38, the “Phytotox value … (100 is 100% damage)” value ([13]; 15.75 g ai/ha) was 55 and the “Phytotox value … (100 is 100% damage)” value ([13]; 31.5 g ai/ha) was 65. The “Phytotox value … (100 is 100% damage)” value ([13]; 63 g ai/ha) was 80, the “Phytotox value … (100 is 100% damage)” value ([14]; 7.88 g ai/ha) was 63 and the “Phytotox value … (100 is 100% damage)” value ([14]; 15.75 g ai/ha) was 70. The “Phytotox value … (100 is 100% damage)” value ([14]; 31.5 g ai/ha) was 78, the “Phytotox value … (100 is 100% damage)” value ([14]; 63 g ai/ha) was 93 and the “Phytotox value … (100 is 100% damage)” value ([15]; 7.88 g ai/ha) was 55. The “Phytotox value … (100 is 100% damage)” value ([15]; 15.75 g ai/ha) was 58, the “Phytotox value … (100 is 100% damage)” value ([15]; 31.5 g ai/ha) was 70 and the “Phytotox value … (100 is 100% damage)” value ([15]; 63 g ai/ha) was 78. For the same molecule, the “Phytotox value … (100 is 100% damage)” value ([16]; 7.88 g ai/ha) was 0, the “Phytotox value … (100 is 100% damage)” value ([16]; 15.75 g ai/ha) was 5 and the “Phytotox value … (100 is 100% damage)” value ([16]; 31.5 g ai/ha) was 35. The “Phytotox value … (100 is 100% damage)” value ([16]; 63 g ai/ha) was 68, the “Phytotox value … (100 is 100% damage)” value ([17]; 7.88 g ai/ha) was 25 and the “Phytotox value … (100 is 100% damage)” value ([17]; 15.75 g ai/ha) was 65. The “Phytotox value … (100 is 100% damage)” value ([17]; 31.5 g ai/ha) was 55 and the “Phytotox value … (100 is 100% damage)” value ([17]; 63 g ai/ha) was 73.
